# Earlier results, collected in US20230345944A1, “Purified and Enhanced Hydrogen Peroxide Disinfecting Solution for the Rapid Inactivation of COVID-19 and Other Pathogens” (Alira Health Boston LLC, priority 2021, published 2023).
# System: bacteria
# Settings: hydrogen peroxide on its own
compound,measurement,value
OO [hydrogen peroxide],minimal inhibitory concentration (MIC),about 1 mM
